From patent US20250074920A1, “MACROCYCLIC COMPOUNDS AND USE AS KINASE INHIBITORS” (BLOSSOMHILL THERAPEUTICS, INC., priority 2022, published 2025)

Tests used:
Test in all cases: KINOMEscan kinase binding assay
[1] = target: JAK2(JH1domain-catalytic); settings: read-out: JAK2(JH1 domain-catalytic) Kd
Procedure: (§1) Kinase binding assays were performed at Eurofins/DiscoveRx using the general KINOMEscan Protocol (Fabian, M. A. et al., “A small molecule-kinase interaction map for clinical kinase inhibitors,” Nat. Biotechnol. 2005, 23(3):329-36). For most assays, kinase-tagged T7 phage strains were prepared in an E. coli host derived from the BL21 strain. E. coli were grown to log-phase and infected with T7 phage and incubated with shaking at 32° C. until lysis. The lysates were centrifuged and filtered to remove cell debris. The remaining kinases were produced in HEK-293 cells and subsequently tagged with DNA for qPCR detection. Streptavidin-coated magnetic beads were treated with biotinylated small molecule ligands for 30 minutes at room temperature to generate affinity resins for kinase assays. The liganded beads were blocked with excess biotin and washed with blocking buffer (SeaBlock (Pierce), 1% BSA, 0.05% Tween 20, 1 mM DTT) to remove unbound ligand and to reduce nonspecific binding. Binding reactions were assembled by combining kinases, liganded affinity beads, and test compounds in 1× binding buffer (20% SeaBlock, 0.17×PBS, 0.05% Tween 20, 6 mM DTT). All reactions were performed in polystyrene 96-well plates in a final volume of 0.135 mL. The assay plates were incubated at room temperature with shaking for 1 hour and the affinity beads were washed with wash buffer (1×PBS, 0.05% Tween 20). The beads were then re-suspended in elution buffer (1×PBS, 0.05% Tween 20, 0.5 μM non-biotinylated affinity ligand) and incubated at room temperature with shaking for 30 minutes. The kinase concentration in the eluates was measured by qPCR. Results for compounds tested in this assay at a given concentration are reported as “% Ctrl”, where lower numbers indicate stronger binding in the matrix. % Ctrl was calculated as (test compound signal-positive control signal)/(negative control signal-positive control signal)×100. Dissociation constants (Kds) for test compound-kinase interactions were calculated by measuring the amount of kinase captured on the solid support as a function of the test compound concentration.

[2] = target: JAK1(JH2domain-pseudokinase); settings: read-out: JAK1(JH2 domain-pseudokinase) Kd
Procedure: as §1

[3] = target: TYK2(JH1domain-catalytic); settings: read-out: TYK2(JH1 domain-catalytic) Kd
Procedure: as §1

[4] = target: JAK3(JH1domain-catalytic); settings: read-out: JAK3(JH1 domain-catalytic) Kd
Procedure: as §1

[5] = target: TYK2(JH2domain-pseudokinase); settings: read-out: TYK2(JH2 domain-pseudokinase) Kd
Procedure: as §1

[6] = target: JAK1(JH1domain-catalytic); settings: read-out: JAK1(JH1 domain-catalytic) Kd
Procedure: as §1

Cc1cc2c([nH]1)/C=C1\C(=O)Nc3c(Cl)cc(cc31)-c1cn(C)nc1COCCN(C)C2=O [Cpd. 7, [3a(4)Z]-20-chloro-6,9,15-trimethyl-10,11,13,15-tetrahydro-2H-1,17-(ethanediylidene)pyrazolo[4,3-m]dipyrrolo[3,2-f:3′,4′-i][1,4]oxazacyclopentadecine-3,8(5H,9H)-dione]
Kd [1]: > 10 µM
Kd [2]: 0.047 µM
Kd [3]: > 10 µM
Kd [4]: > 10 µM
Kd [5]: 0.00051 µM
Kd [6]: > 10 µM

Cc1nc2c([nH]1)/C=C1\C(=O)Nc3c(Cl)cc(cc31)-c1cn(C)nc1COC[C@@H](C)N(C)C2=O [Cpd. 8, [3a(4)Z,10R]-20-chloro-6,9,10,15-tetramethyl-10,11,13,15-tetrahydro-2H-1,17-(ethanediylidene)imidazo[4,5-f]pyrazolo[4,3-m]pyrrolo[3,4-i][1,4]oxazacyclopentadecine-3,8(5H,9H)-dione]
Kd [1]: > 10 µM
Kd [3]: > 10 µM
Kd [4]: > 10 µM
Kd [5]: 0.17 µM
Kd [6]: > 10 µM

Cc1cc2c([nH]1)/C=C1\C(=O)Nc3c(Cl)cc(cc31)-c1[nH]c(C)nc1COC[C@@H](C)N(C)C2=O [Cpd. 9, [3a(4)Z,10R]-20-chloro-6,9,10,15-tetramethyl-10,11,13,16-tetrahydro-2H-1,17-(ethanediylidene)imidazo[4,5-m]dipyrrolo[3,2-f:3′,4′-i][1,4]oxazacyclopentadecine-3,8(5H,9H)-dione]
Kd [1]: > 10 µM
Kd [2]: 0.13 µM
Kd [3]: > 10 µM
Kd [4]: 3.1 µM
Kd [5]: 0.001 µM
Kd [6]: > 10 µM

Cc1cc2c([nH]1)/C=C1\C(=O)Nc3c(C#N)cc(cc31)-c1cn(C)nc1COC[C@@H](C)N(C)C2=O [Cpd. 10, [3a(4)Z,10R]-6,9,10,15-tetramethyl-3,8-dioxo-3,5,8,9,10,11,13,15-octahydro-2H-1,17-(ethanediylidene)pyrazolo[4,3-m]dipyrrolo[3,2-f:3′,4′-i][1,4]oxazacyclopentadecine-20-carbonitrile]
Kd [1]: > 1 µM
Kd [4]: > 1 µM
Kd [5]: 0.046 µM
Kd [6]: > 1 µM

Cc1cc2c([nH]1)/C=C1\C(=O)Nc3c(Cl)cc(cc31)-c1cn(C)nc1COC[C@H](C)N(C)C2=O [compound 6, [3a(4)Z,10S]-20-chloro-6,9,10,15-tetramethyl-10,11,13,15-tetrahydro-2H-1,17-(ethanediylidene)pyrazolo[4,3-m]dipyrrolo[3,2-f:3′,4′-i][1,4]oxazacyclopentadecine-3,8(5H,9H)-dione]
Kd [1]: > 10 µM
Kd [2]: 0.16 µM
Kd [3]: > 10 µM
Kd [4]: > 10 µM
Kd [5]: 0.0025 µM
Kd [6]: > 10 µM

Cc1cc2c([nH]1)/C=C1\C(=O)Nc3c(F)cc(cc31)-c1c(nn(C)c1C)COC[C@@H](C)N(C)C2=O [compound 11, [3a(4)Z,10R]-20-fluoro-6,9,10,15,16-pentamethyl-10,11,13,15-tetrahydro-2H-1,17-ethenopyrazolo[4,3-m]dipyrrolo[3,2-f:3′,4′-i][1,4]oxazacyclopentadecine-3,8(5H,9H)-dione]
Kd [1]: > 10 µM
Kd [2]: 0.73 µM
Kd [3]: > 10 µM
Kd [4]: 5.2 µM
Kd [5]: 0.0034 µM
Kd [6]: > 10 µM

Cc1cc2c([nH]1)/C=C1\C(=O)Nc3c(Cl)cc(cc31)-c1c(nn(C)c1C)COC[C@@H](C)N(C)C2=O [compound 12, [3a(4)Z,10R]-20-chloro-6,9,10,15,16-pentamethyl-10,11,13,15-tetrahydro-2H-1,17-ethenopyrazolo[4,3-m]dipyrrolo[3,2-f:3′,4′-i][1,4]oxazacyclopentadecine-3,8(5H,9H)-dione]
Kd [1]: > 10 µM
Kd [2]: 0.12 µM
Kd [3]: > 10 µM
Kd [4]: > 10 µM
Kd [5]: 0.0013 µM
Kd [6]: > 10 µM

Cc1cc2c([nH]1)/C=C1\C(=O)Nc3c(F)cc(cc31)-c1cn(C)nc1COC[C@@H](C)N(C)C2=O [compound 13, [3a(4)Z,10R]-20-fluoro-6,9,10,15-tetramethyl-10,11,13,15-tetrahydro-2H-1,17-ethenopyrazolo[4,3-m]dipyrrolo[3,2-f:3′,4′-i][1,4]oxazacyclopentadecine-3,8(5H,9H)-dione]
Kd [1]: > 10 µM
Kd [2]: 0.41 µM
Kd [3]: > 10 µM
Kd [4]: > 10 µM
Kd [5]: 0.001 µM
Kd [6]: > 10 µM
